Results from patent US11504382B2, “Tricyclic inhibitors of Hepatitis B virus” (Antios Therapeutics, Inc., priority 2018, dated 2022).
pEC50: −log10 of the molar value.

Test system: HBV
Experiment: HBV inhibition assay in HepAD38 cells (extracellular HBV DNA by direct qPCR)
Format: cell-based, Hepatitis B virus
Settings: Hepatitis B virus, 96 hours; for pEC50: 8-point dose-response curve, read-out: HBV inh EC50; for inhibition at 0.1 µM / inhibition at 0.05 µM: relative to non-treated reference, read-out: Anti HBV Activity (conc μM)

Structure (SMILES) | pEC50 | inhibition at 0.1 µM | inhibition at 0.05 µM
Cn1cc2c(c1C(=O)Nc1cc(F)c(F)c(F)c1)OCC1CN(c3nccc(=O)[nH]3)CC1NS2(=O)=O (stereo not drawn) [Example E59, cis-7-methyl-2-(6-oxo-1,6-dihydropyrimidin-2-yl)-N-(3,4,5-trifluorophenyl)-2,3,3a,4,10,10a-hexahydro-1H,7H-dipyrrolo[3,4-b:3′,4′-f][1,4,5]oxathiazocine-8-carboxamide 5,5-dioxide] | < 6.00 | – | –
Cn1cc2c(c1C(=O)Nc1cc(F)c(F)c(F)c1)OCC1CN(C(=O)c3nonc3N)CC1NS2(=O)=O (stereo not drawn) [Example E60, cis-2-(4-amino-1,2,5-oxadiazole-3-carbonyl)-7-methyl-N-(3,4,5-trifluorophenyl)-2,3,3a,4,10,10a-hexahydro-1H,7H-dipyrrolo[3,4-b:3′,4′-f][1,4,5]oxathiazocine-8-carboxamide 5,5-dioxide] | > 6.00 | – | –
Cc1cc(NC(=O)c2c3c(cn2C)S(=O)(=O)NC2CN(C(=O)c4nonc4N)CC2CO3)ccc1F (stereo not drawn) [Example E61, cis-2-(4-amino-1,2,5-oxadiazole-3-carbonyl)-N-(4-fluoro-3-methylphenyl)-7-methyl-2,3,3a,4,10,10a-hexahydro-1H,7H-dipyrrolo[3,4-b:3′,4′-f][1,4,5]oxathiazocine-8-carboxamide 5,5-dioxide] | > 6.00 | – | –
Cc1cc(NC(=O)c2c3c(cn2C)S(=O)(=O)NC2CN(C(=O)c4ncon4)CC2CO3)ccc1F (stereo not drawn) [Example E63, cis-N-(4-fluoro-3-methylphenyl)-7-methyl-2-(1,2,4-oxadiazole-3-carbonyl)-2,3,3a,4,10,10a-hexahydro-1H,7H-dipyrrolo[3,4-b:3′,4′-f][1,4,5]oxathiazocine-8-carboxamide 5,5-dioxide] | > 6.00 | – | –
Cn1cc2c(c1C(=O)Nc1cc(F)c(F)c(F)c1)OCC1CN(C(=O)c3cnco3)CC1NS2(=O)=O (stereo not drawn) [Example E64, cis-7-methyl-2-(oxazole-5-carbonyl)-N-(3,4,5-trifluorophenyl)-2,3,3a,4,10,10a-hexahydro-1H,7H-dipyrrolo[3,4-b:3′,4′-f][1,4,5]oxathiazocine-8-carboxamide 5,5-dioxide] | > 6.00 | – | –
Cn1cc2c(c1C(=O)Nc1cc(F)c(F)c(F)c1)OCC1CN(C(=O)c3cocn3)CC1NS2(=O)=O (stereo not drawn) [Example E65, cis-7-methyl-2-(oxazole-4-carbonyl)-N-(3,4,5-trifluorophenyl)-2,3,3a,4,10,10a-hexahydro-1H,7H-dipyrrolo[3,4-b:3′,4′-f][1,4,5]oxathiazocine-8-carboxamide 5,5-dioxide] | > 6.00 | – | –
Cc1cc(NC(=O)c2c3c(cn2C)S(=O)(=O)NC2CN(C(=O)C4(C)COC4)CC2CO3)ccc1F (stereo not drawn) [Example E66, cis-N-(4-fluoro-3-methylphenyl)-7-methyl-2-(3-methyloxetane-3-carbonyl)-2,3,3a,4,10,10a-hexahydro-1H,7H-dipyrrolo[3,4-b:3′,4′-f][1,4,5]oxathiazocine-8-carboxamide 5,5-dioxide] | > 6.00 | – | –
CC(=O)OCC(=O)N1CC2COc3c(cn(C)c3C(=O)Nc3cc(F)c(F)c(F)c3)S(=O)(=O)NC2C1 (stereo not drawn) [Example E70, cis-2-(7-methyl-5,5-dioxido-8-((3,4,5-trifluorophenyl)carbamoyl)-3a,4,10,10a-tetrahydro-1H,7H-dipyrrolo[3,4-b:3′,4′-f][1,4,5]oxathiazocin-2(3H)-yl)-2-oxoethyl acetate] | – | < 50% | –
Cn1cc2c(c1C(=O)Nc1cc(F)c(F)c(F)c1)OCC1CN(C(=O)CO)CC1NS2(=O)=O (stereo not drawn) [Example E71, cis-2-(2-hydroxyacetyl)-7-methyl-N-(3,4,5-trifluorophenyl)-2,3,3a,4,10,10a-hexahydro-1H,7H-dipyrrolo[3,4-b:3′,4′-f][1,4,5]oxathiazocine-8-carboxamide 5,5-dioxide] | – | < 50% | –
Cn1cc2c(c1C(=O)Nc1cc(F)c(F)c(F)c1)OCC1CN(CC(F)(F)F)CC1NS2(=O)=O (stereo not drawn) [Example E73, cis-7-methyl-2-(2,2,2-trifluoroethyl)-N-(3,4,5-trifluorophenyl)-2,3,3a,4,10,10a-hexahydro-1H,7H-dipyrrolo[3,4-b:3′,4′-f][1,4,5]oxathiazocine-8-carboxamide 5,5-dioxide] | – | > 50% | –
Cn1cc2c(c1C(=O)Nc1cc(F)c(F)c(F)c1)OCC1CN(CC#N)CC1NS2(=O)=O (stereo not drawn) [Example E74, cis-2-(cyanomethyl)-7-methyl-N-(3,4,5-trifluorophenyl)-2,3,3a,4,10,10a-hexahydro-1H,7H-dipyrrolo[3,4-b:3′,4′-f][1,4,5]oxathiazocine-8-carboxamide 5,5-dioxide] | > 6.00 | – | > 50%
Cn1cc2c(c1C(=O)Nc1cc(F)c(F)c(F)c1)OCC1CN(c3ncc(F)cn3)CC1NS2(=O)=O (stereo not drawn) [Example E75, cis-2-(5-fluoropyrimidin-2-yl)-7-methyl-N-(3,4,5-trifluorophenyl)-2,3,3a,4,10,10a-hexahydro-1H,7H-dipyrrolo[3,4-b:3′,4′-f][1,4,5]oxathiazocine-8-carboxamide 5,5-dioxide] | > 6.00 | – | > 50%
Cc1cc(NC(=O)c2c3c(cn2C)S(=O)(=O)NC2CN(c4ccnc(Cl)c4)CC2CO3)ccc1F (stereo not drawn) [Example E76, cis-2-(2-chloropyridin-4-yl)-N-(4-fluoro-3-methylphenyl)-7-methyl-2,3,3a,4,10,10a-hexahydro-1H,7H-dipyrrolo[3,4-b:3′,4′-f][1,4,5]oxathiazocine-8-carboxamide 5,5-dioxide] | > 6.00 | – | > 50%
CCOC(=O)N1C[C@H]2C[C@@H]1COc1c(cn(C)c1C(=O)Nc1cc(F)c(F)c(F)c1)S(=O)(=O)N2 [Example E77, Ethyl (3R,6R)-10-methyl-9-((3,4,5-trifluorophenyl)carbamoyl)-3,4,6,7-tetrahydro-10H-3,6-methanopyrrolo[3,4-b][1,4,5,8]oxathiadiazecine-5(2H)-carboxylate 1,1-dioxide] | > 6.00 | – | –
Cc1nnc(N2CC3COc4c(cn(C)c4C(=O)Nc4cc(F)c(F)c(F)c4)S(=O)(=O)NC3C2)o1 (stereo not drawn) [Example E78, cis-7-methyl-2-(5-methyl-1,3,4-oxadiazol-2-yl)-N-(3,4,5-trifluorophenyl)-2,3,3a,4,10,10a-hexahydro-1H,7H-dipyrrolo[3,4-b:3′,4′-f][1,4,5]oxathiazocine-8-carboxamide 5,5-dioxide] | > 6.00 | – | > 50%
Cc1cc(NC(=O)c2c3c(cn2C)S(=O)(=O)NC2CN(CC(F)(F)F)CC2CO3)ccc1F (stereo not drawn) [Example E80, cis-N-(4-fluoro-3-methylphenyl)-7-methyl-2-(2,2,2-trifluoroethyl)-2,3,3a,4,10,10a-hexahydro-1H,7H-dipyrrolo[3,4-b:3′,4′-f][1,4,5]oxathiazocine-8-carboxamide 5,5-dioxide] | – | > 50% | –
Cn1cc2c(c1C(=O)Nc1cc(F)c(F)c(F)c1)OCC1CN(c3ccccn3)CC1NS2(=O)=O (stereo not drawn) [Example E81, cis-7-methyl-2-(pyridin-2-yl)-N-(3,4,5-trifluorophenyl)-2,3,3a,4,10,10a-hexahydro-1H,7H-dipyrrolo[3,4-b:3′,4′-f][1,4,5]oxathiazocine-8-carboxamide 5,5-dioxide] | – | > 50% | –
Cn1cc2c(c1C(=O)Nc1cc(F)c(F)c(F)c1)OCC1CN(c3cnccn3)CC1NS2(=O)=O (stereo not drawn) [Example E82, cis-7-methyl-2-(pyrazin-2-yl)-N-(3,4,5-trifluorophenyl)-2,3,3a,4,10,10a-hexahydro-1H,7H-dipyrrolo[3,4-b:3′,4′-f][1,4,5]oxathiazocine-8-carboxamide 5,5-dioxide] | – | > 50% | –
Cc1noc(N2CC3COc4c(cn(C)c4C(=O)Nc4cc(F)c(F)c(F)c4)S(=O)(=O)NC3C2)n1 (stereo not drawn) [Example E83, cis-7-methyl-2-(3-methyl-1,2,4-oxadiazol-5-yl)-N-(3,4,5-trifluorophenyl)-2,3,3a,4,10,10a-hexahydro-1H,7H-dipyrrolo[3,4-b:3′,4′-f][1,4,5]oxathiazocine-8-carboxamide 5,5-dioxide] | > 6.00 | > 50% | –
Cc1nnc(C(=O)N2CC3NS(=O)(=O)c4cn(C)c(C(=O)Nc5ccc(F)c(C)c5)c4OCC3(C)C2)o1 (stereo not drawn) [Example E86, cis-N-(4-fluoro-3-methylphenyl)-7,10a-dimethyl-2-(5-methyl-1,3,4-oxadiazole-2-carbonyl)-2,3,3a,4,10,10a-hexahydro-1H,7H-dipyrrolo[3,4-b:3′,4′-f][1,4,5]oxathiazocine-8-carboxamide 5,5-dioxide] | > 6.00 | – | –
Cc1cc(NC(=O)c2c3c(cn2C)S(=O)(=O)NC2CN(C(=O)c4ncoc4C)CC2(C)CO3)ccc1F (stereo not drawn) [Example E87, cis-N-(4-fluoro-3-methylphenyl)-7,10a-dimethyl-2-(5-methyloxazole-4-carbonyl)-2,3,3a,4,10,10a-hexahydro-1H,7H-dipyrrolo[3,4-b:3′,4′-f][1,4,5]oxathiazocine-8-carboxamide 5,5-dioxide] | > 6.00 | – | –
Cc1cc(NC(=O)c2c3c(cn2C)S(=O)(=O)NC2CN(C(=O)C4(C)CCCO4)CC2(C)CO3)ccc1F (stereo not drawn) [Example E88, cis-N-(4-fluoro-3-methylphenyl)-7,10a-dimethyl-2-(2-methyltetrahydrofuran-2-carbonyl)-2,3,3a,4,10,10a-hexahydro-1H,7H-dipyrrolo[3,4-b:3′,4′-f][1,4,5]oxathiazocine-8-carboxamide 5,5-dioxide] | > 6.00 | – | –
Cc1cc(NC(=O)c2c3c(cn2C)S(=O)(=O)NC2CN(C(=O)C4(C)COC4)CC2(C)CO3)ccc1F (stereo not drawn) [Example E89, cis-N-(4-fluoro-3-methylphenyl)-7,10a-dimethyl-2-(3-methyloxetane-3-carbonyl)-2,3,3a,4,10,10a-hexahydro-1H,7H-dipyrrolo[3,4-b:3′,4′-f][1,4,5]oxathiazocine-8-carboxamide 5,5-dioxide] | > 6.00 | – | –
Cc1cc(NC(=O)c2c3c(cn2C)S(=O)(=O)NC2CN(C(=O)C45CC(CO4)C5)CC2(C)CO3)ccc1F (stereo not drawn) [Example E90, cis-2-(2-oxabicyclo[2.1.1]hexane-1-carbonyl)-N-(4-fluoro-3-methylphenyl)-7,10a-dimethyl-2,3,3a,4,10,10a-hexahydro-1H,7H-dipyrrolo[3,4-b:3′,4′-f][1,4,5]oxathiazocine-8-carboxamide 5,5-dioxide] | > 6.00 | – | –
